Reference: ChEMBL document CHEMBL1201862, “PubChem BioAssay data set” (2004)
The source made the active and inactive calls.

How the values were obtained:
[1] = target: Disintegrin and metalloproteinase domain-containing protein 17 (Homo sapiens, UniProt P78536); assay: exosite inhibitors of ADAM17, dose response, biochemical (AID 743260)
[2] = ADAM10 protease inhibitors, dose response, selectivity assay for ADAM17 exosite inhibitor project, biochemical, FRET peptide substrate, recombinant human ADAM10 (AID 743259);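 also: ADAM10 enzyme cleaving a FRET peptide substrate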
Beta-galactosidase = Beta-galactosidase (Escherichia coli, UniProt Q8VNN2); assay: PubChem AID 485352; type: functional
[3] = target: T1, Type-1 angiotensin II receptor (Homo sapiens, UniProt P30556); assay: AT1 receptor antagonists, dose response, selectivity assay for APJ receptor antagonist project, cell-based, uHTS hits (AID 463214); type: functional;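 also: antagonist potency against angiotensin II stimulated AT1 response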
T1 sequence (P30556 whole entry): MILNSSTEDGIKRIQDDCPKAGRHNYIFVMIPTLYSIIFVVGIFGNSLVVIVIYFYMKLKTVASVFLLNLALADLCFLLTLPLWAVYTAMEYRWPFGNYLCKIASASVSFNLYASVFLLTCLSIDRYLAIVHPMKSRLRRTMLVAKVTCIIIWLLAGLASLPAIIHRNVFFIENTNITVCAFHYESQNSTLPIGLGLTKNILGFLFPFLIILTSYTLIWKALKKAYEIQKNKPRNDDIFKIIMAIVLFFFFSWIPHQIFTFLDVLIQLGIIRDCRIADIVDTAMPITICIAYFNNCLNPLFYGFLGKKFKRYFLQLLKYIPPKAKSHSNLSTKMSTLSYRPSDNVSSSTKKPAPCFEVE

Cytochrome P450 2D6 = Cytochrome P450 2D6 (Homo sapiens, UniProt P10635);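 also: CYP2D6 member of a cytochrome P450 panel assay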
Cytochrome P450 2C9 = Cytochrome P450 2C9 (Homo sapiens, UniProt P11712)
[4] = inhibitors of intracellular T. cruzi replication, confirmation, NIH3T3 host cells, beta-gal luminescence (AID 2044); type: functional, cell-based;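 also: intracellular parasites grown in NIH/3T3 mouse fibroblasts as host cells; luminescent beta-galactosidase reporter signal from transgenic T. cruzi replicating inside host cells; inhibitors lower the luminescence signal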
[5] = microbe, parasite or virus in culture; type: functional; conditions: Mycobacterium tuberculosis
[6] = cytotoxicity toward NIH3T3 fibroblasts, dose response, counter-screen, cell-based, ATP luminescence, mouse fibroblasts (AID 2010); type: functional;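 also: cells exposed to compound for about 90 hours before reading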
[7] = target: T2, Apoptotic protease-activating factor 1 (Homo sapiens, UniProt O14727); type: functional
T2 sequence (O14727 whole entry): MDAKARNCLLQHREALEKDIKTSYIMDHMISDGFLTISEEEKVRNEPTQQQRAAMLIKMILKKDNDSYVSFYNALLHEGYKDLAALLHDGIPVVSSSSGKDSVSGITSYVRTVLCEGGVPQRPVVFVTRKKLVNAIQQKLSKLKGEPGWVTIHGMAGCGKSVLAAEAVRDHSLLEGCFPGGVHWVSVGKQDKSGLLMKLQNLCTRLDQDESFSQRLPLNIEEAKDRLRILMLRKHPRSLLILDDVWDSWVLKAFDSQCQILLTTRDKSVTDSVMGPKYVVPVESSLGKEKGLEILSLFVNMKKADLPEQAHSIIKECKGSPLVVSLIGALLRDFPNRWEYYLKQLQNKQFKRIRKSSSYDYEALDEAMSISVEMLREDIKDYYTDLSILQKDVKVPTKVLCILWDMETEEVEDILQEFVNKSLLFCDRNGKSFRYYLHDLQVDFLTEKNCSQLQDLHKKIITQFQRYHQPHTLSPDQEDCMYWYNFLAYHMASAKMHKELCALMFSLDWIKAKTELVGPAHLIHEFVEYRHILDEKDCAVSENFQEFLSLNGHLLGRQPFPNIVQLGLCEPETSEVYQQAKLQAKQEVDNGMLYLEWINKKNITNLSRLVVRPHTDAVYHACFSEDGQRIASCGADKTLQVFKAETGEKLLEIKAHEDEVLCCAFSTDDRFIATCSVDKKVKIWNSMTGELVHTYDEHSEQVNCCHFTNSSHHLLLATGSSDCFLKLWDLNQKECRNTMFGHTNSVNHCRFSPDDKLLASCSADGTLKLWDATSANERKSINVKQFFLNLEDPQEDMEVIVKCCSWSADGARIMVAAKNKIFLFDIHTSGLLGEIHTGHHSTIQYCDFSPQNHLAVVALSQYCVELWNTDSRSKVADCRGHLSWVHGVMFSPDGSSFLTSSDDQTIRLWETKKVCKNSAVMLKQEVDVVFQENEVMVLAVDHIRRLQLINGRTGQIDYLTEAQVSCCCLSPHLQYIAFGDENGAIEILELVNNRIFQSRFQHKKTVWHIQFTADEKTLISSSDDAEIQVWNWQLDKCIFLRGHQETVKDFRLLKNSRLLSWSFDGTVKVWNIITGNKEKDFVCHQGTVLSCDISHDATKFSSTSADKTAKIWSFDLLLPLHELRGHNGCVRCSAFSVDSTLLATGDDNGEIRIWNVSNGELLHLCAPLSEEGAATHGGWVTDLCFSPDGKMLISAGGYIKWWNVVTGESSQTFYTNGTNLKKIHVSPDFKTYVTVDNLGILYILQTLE

[8] = target: T3, Sentrin-specific protease 8 (Homo sapiens, UniProt Q96LD8); type: functional
T3 sequence (Q96LD8 whole entry): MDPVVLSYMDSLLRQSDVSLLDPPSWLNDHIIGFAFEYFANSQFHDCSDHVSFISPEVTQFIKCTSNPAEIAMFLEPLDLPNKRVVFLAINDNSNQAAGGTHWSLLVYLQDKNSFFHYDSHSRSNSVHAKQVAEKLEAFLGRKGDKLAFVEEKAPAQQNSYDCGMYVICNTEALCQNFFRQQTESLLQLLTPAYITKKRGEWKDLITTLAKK

[9] = target: T3, Sentrin-specific protease 8; type: functional; remark: listed apart in the source
[10] = ZM109 Env clade C HIV-1 fusion inhibitors, dose response, HeLa effector, CEM target cells, luciferase, cherry-pick (AID 652058); type: functional, cell-based
Paired box protein Pax-8 = Paired box protein Pax-8 (Homo sapiens, UniProt Q06710); assay: inhibitors of PAX8-driven TPO luciferase reporter, dose response, RMG-I cells, cherry-pick (AID 687027); type: functional, cell-based;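 also: luciferase reporter driven by Pax8 target thyroperoxidase promoter measured by SteadyGlo luminescence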
[11] = non-specific cell cytotoxicity, dose response, cytotoxicity control for PAX8 inhibitor project, plate reader, dry powder samples (AID 743021); type: functional, cell-based
[12] = target: T4, COUP transcription factor 2 (Homo sapiens, UniProt P24468); assay: Luminescence-based cell-based high throughput dose response assay to identify inhibitors of COUP-TFII (NR2F2).; type: functional;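 also: HEK293 cells transiently cotransfected with COUP-TFII expression vector and reporter; luciferase reporter luminescence driven by COUP-TFII from the pX2-168 reporter plasmid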
T4 sequence (P24468 whole entry): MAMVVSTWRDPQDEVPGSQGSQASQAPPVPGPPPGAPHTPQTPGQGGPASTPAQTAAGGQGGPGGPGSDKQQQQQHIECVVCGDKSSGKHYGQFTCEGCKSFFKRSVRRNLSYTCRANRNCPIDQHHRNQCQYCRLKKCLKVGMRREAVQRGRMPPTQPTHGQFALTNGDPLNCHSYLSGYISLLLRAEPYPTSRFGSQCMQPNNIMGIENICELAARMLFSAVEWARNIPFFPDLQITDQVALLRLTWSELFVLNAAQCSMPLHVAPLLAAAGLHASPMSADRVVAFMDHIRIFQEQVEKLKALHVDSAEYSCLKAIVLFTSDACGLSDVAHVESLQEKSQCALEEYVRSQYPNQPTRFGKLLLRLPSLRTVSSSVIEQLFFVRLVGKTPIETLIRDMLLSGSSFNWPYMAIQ

[13] = IGROV1 ovarian cancer cell cytotoxicity, dose response, PAX8 inhibitor project, plate reader, dry powder samples (AID 743043); type: functional, cell-based; conditions: IGROV-1
[14] = cytotoxicity in OVCAR8 ovarian cancer cells, dose response, PAX8 project, cell-based, plate reader, dry powder samples (AID 743197); type: functional; conditions: OVCAR-8
[15] = inhibitors of HIV Env-driven cell fusion, dose response, cherry-pick (AID 652057); type: functional, cell-based
[16] = inhibitors of clade B AD8 Env fusion, dose response, cell-based, cherry-pick (AID 652062); type: functional;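 also: luciferase signal from cell-cell fusion driven by HIV-1 clade B AD8 Env; potency is for inhibitors of fusion seen as a drop in luminescence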
[17] = target: T5, Replicative DNA helicase DnaB (Mycobacterium tuberculosis, UniProt P9WMR3); assay: DnaB intein splicing inhibitors, dose response, biochemical, cell-free fluorescence (AID 449749); type: functional
T5 sequence (P9WMR3 whole entry): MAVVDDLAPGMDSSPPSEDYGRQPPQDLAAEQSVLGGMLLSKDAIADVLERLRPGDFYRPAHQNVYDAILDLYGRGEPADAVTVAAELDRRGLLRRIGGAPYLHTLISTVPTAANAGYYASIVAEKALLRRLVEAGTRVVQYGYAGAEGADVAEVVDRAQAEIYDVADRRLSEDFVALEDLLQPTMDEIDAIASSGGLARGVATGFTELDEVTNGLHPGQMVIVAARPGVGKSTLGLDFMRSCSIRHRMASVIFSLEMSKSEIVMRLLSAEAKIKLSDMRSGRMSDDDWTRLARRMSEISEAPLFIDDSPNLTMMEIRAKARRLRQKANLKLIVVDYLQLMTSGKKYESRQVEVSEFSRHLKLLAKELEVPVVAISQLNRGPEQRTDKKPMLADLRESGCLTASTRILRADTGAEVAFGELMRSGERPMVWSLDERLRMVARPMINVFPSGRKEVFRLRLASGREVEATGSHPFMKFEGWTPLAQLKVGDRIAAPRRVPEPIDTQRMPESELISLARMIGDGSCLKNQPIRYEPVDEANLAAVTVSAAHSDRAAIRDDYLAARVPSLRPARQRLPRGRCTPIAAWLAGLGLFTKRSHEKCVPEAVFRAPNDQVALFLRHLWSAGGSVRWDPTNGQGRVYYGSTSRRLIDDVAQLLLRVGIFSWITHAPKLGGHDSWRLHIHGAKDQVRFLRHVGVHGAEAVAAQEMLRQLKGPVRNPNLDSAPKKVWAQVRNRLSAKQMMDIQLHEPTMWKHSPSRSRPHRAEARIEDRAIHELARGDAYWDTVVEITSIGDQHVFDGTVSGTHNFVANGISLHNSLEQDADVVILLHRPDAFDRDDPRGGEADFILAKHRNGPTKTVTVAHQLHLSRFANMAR

Protein RecA = target: T6, Protein RecA (Mycobacterium tuberculosis, UniProt P9WHJ3); assay: Fluorescence Cell-Free Homogeneous Dose Retest to Identify Inhibitors of RecA-Intein Splicing Activity. [Related pubchem assays (depositor defined):AID2097, AID2223, AID489010, AID492950]; type: functional
T6 sequence (P9WHJ3 whole entry): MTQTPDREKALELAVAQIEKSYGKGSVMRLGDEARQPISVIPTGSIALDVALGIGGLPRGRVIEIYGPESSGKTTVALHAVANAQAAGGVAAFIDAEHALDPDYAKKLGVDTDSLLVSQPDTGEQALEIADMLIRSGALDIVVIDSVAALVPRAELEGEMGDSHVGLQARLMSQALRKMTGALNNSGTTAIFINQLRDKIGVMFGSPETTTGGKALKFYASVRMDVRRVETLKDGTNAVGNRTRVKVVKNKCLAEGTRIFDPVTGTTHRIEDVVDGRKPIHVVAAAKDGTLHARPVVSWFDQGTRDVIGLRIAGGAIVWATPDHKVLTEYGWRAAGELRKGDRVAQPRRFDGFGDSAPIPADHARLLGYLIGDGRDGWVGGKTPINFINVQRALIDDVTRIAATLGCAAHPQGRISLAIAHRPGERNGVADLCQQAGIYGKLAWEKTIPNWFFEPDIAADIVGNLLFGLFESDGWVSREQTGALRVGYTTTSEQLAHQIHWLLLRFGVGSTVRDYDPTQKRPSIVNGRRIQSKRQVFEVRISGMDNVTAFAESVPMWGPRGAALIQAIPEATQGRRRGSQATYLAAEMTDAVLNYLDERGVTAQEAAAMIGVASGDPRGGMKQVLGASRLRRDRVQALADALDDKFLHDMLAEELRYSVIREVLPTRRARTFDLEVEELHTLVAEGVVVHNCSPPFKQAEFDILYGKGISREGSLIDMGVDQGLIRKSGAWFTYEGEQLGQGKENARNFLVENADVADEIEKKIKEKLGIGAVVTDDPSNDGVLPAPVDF

Sequence of Disintegrin and metalloproteinase domain-containing protein 17 (P78536 whole entry, the tested form may be a part): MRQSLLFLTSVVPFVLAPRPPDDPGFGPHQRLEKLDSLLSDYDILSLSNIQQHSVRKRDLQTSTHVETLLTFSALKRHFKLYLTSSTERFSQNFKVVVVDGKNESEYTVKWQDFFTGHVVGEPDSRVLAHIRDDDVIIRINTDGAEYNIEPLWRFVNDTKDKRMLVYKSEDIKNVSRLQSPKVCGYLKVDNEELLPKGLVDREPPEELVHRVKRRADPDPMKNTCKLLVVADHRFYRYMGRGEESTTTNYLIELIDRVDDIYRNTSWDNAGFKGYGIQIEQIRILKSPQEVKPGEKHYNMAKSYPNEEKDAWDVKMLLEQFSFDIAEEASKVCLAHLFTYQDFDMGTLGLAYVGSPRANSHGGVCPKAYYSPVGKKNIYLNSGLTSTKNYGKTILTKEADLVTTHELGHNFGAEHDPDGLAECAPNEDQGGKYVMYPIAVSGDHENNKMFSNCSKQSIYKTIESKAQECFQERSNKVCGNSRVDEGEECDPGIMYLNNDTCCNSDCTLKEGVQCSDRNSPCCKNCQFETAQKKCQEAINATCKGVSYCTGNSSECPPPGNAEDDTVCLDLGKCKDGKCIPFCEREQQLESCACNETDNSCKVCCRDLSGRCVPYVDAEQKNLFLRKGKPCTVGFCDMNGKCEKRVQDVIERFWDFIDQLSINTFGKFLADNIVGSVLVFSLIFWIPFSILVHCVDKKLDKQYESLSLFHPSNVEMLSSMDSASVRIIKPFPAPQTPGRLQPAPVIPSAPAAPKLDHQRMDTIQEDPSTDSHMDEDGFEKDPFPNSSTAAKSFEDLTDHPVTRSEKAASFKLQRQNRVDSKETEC
Sequence of Paired box protein Pax-8 (Q06710 whole entry): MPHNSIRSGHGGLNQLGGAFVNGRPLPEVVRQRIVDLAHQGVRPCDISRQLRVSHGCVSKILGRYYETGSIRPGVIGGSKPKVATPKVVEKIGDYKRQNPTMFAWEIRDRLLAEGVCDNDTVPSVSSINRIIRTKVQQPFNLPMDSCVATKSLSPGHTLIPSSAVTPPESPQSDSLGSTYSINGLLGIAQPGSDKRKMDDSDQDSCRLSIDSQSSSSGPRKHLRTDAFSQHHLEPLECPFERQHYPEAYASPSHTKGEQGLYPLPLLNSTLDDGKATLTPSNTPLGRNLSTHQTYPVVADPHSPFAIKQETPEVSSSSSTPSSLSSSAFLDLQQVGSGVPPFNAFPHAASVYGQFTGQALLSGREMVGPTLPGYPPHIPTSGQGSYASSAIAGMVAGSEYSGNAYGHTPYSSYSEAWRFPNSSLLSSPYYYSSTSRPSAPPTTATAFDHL
Sequence of Beta-galactosidase (Q8VNN2 whole entry): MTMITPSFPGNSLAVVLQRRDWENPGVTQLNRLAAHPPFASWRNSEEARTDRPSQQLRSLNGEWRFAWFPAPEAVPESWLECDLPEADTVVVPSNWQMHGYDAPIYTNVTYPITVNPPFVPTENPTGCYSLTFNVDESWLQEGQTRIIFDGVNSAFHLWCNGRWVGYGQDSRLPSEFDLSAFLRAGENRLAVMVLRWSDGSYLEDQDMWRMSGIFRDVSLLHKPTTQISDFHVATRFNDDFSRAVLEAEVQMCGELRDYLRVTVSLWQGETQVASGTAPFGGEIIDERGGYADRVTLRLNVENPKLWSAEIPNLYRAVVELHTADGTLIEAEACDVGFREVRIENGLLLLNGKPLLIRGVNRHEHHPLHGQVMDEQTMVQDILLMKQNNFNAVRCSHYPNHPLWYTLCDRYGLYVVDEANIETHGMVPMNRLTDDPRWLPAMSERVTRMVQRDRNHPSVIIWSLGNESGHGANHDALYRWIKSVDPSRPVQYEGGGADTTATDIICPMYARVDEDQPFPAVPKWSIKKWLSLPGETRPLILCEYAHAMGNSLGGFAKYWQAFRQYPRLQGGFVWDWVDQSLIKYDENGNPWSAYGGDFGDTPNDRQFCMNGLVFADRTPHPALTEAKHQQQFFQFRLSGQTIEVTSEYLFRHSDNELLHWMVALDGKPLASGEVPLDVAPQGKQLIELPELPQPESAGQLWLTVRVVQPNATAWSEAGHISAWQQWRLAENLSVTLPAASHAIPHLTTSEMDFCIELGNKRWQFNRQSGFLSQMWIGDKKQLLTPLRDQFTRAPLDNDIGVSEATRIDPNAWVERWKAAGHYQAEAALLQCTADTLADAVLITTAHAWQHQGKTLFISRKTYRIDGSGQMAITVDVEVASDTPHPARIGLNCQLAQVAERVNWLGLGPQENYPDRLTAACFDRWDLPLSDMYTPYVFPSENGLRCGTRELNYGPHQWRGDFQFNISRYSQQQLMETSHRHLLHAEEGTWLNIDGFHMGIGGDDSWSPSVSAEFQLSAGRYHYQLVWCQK
Sequence of Cytochrome P450 2C9 (P11712 whole entry): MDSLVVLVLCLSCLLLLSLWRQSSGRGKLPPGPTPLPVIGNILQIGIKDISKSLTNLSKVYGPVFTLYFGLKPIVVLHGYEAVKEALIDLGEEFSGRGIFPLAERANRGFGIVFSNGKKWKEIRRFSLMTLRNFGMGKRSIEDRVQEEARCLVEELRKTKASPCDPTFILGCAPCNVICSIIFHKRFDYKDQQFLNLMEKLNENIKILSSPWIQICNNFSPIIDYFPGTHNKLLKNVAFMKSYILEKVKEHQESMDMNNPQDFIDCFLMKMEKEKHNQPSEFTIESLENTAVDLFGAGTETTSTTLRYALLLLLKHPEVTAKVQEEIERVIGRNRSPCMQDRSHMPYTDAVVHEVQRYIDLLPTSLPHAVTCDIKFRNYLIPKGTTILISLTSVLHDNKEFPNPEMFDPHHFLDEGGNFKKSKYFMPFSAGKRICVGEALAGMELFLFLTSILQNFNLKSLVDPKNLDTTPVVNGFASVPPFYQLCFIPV
Sequence of Cytochrome P450 2D6 (P10635 whole entry): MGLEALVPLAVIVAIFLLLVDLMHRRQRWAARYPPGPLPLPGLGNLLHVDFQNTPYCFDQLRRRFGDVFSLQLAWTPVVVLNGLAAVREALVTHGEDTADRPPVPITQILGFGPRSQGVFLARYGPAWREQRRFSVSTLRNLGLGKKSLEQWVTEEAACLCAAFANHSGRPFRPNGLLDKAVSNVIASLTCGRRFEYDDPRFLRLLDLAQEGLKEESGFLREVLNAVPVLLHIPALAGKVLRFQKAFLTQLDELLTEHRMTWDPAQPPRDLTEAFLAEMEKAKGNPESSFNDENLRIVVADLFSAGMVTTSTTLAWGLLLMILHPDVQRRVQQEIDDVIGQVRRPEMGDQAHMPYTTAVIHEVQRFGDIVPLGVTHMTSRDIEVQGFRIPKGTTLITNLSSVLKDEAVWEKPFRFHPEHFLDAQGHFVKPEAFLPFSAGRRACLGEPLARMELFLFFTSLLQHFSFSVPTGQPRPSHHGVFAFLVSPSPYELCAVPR

Cc1cnc(C(=O)OC(C)C(=O)Nc2ccc3c(c2)OCCO3)cn1 (configuration not stated)
IC50 [1]: > 69.5 µM (inactive)
IC50 [2]: > 69.5 µM (inactive)

COc1cccc(CC(=O)N(Cc2ccccc2)c2ccccc2C(=O)Nc2cc(OC)ccc2OC)c1
IC50 [1]: > 69.5 µM (inactive)
IC50 [2]: > 69.5 µM (inactive)

O=C(CCCC(=O)OCC(=O)c1ccc(Cl)cc1Cl)Nc1cc(C(F)(F)F)ccc1Cl
EC50 (Beta-galactosidase): > 40 µM (inactive)
IC50 [3]: > 40 µM (not active)
AC50 (Cytochrome P450 2D6): 12.6 µM (inconclusive)
AC50 (Cytochrome P450 2C9): inconclusive

CC(C)(C)c1ccc(C(=O)NNc2cc(N3CCCCC3)nc(N3CCCCC3)n2)cc1
EC50 [4]: 1.7 µM (active)
CC50 [5]: > 40 µM (active)
EC50 [6]: > 60 µM (not active)
IC50 [7]: 3.59 µM (active)
IC50 [8]: 0.796 µM (active)
IC50 [9]: 0.384 µM (active)

O=C(CCN1CCCCC1)N[C@H]1CC[C@H](CCn2cc(-c3ccccc3)nn2)O[C@@H]1CO
AC50 [10]: 40.8 µM (active)

COc1ccc(NC(=O)Nc2ccc3c(c2)C(=O)N([C@@H](C)CO)C[C@@H](C)[C@H](CN(C)Cc2ccc(C(F)(F)F)cc2)O3)cc1
AC50 (Paired box protein Pax-8): 22 µM (active)
AC50 [11]: 41.7 µM (active)

O=C(CSc1cc(Cl)ccc1Cl)N/N=C/c1ccc[nH]1
IC50 [12]: 15 µM (inactive)

C[C@@H]1CCCCO[C@@H](CN(C)Cc2ccc(C(F)(F)F)cc2)[C@H](C)CN([C@H](C)CO)C(=O)c2cc(NS(=O)(=O)c3ccccc3)ccc2O1
AC50 (Paired box protein Pax-8): 6.14 µM (active)
AC50 [13]: 41.9 µM (active)
AC50 [14]: 34 µM (active)

O=C(COC(=O)/C=C/c1ccc(OC(F)F)cc1)Nc1ccc(S(=O)(=O)N2CCCC2)cc1
IC50 [1]: > 69.5 µM (inactive)
IC50 [2]: > 69.5 µM (inactive)

COC(=O)[C@H](CC(C)C)N1Cc2nnn(Cc3ccc(C)cc3)c2-c2cc(F)ccc2S1(=O)=O
IC50 [1]: > 69.5 µM (inactive)
IC50 [2]: > 69.5 µM (inactive)

COc1cccc(S(=O)(=O)N(C)C[C@@H]2Oc3cc(C#CCC(C)C)ccc3S(=O)(=O)N([C@H](C)CO)C[C@H]2C)c1
AC50 [15]: 36.2 µM (active)
AC50 [10]: 36.9 µM (active)
AC50 [16]: 8.75 µM (active)

CCOc1ccc(C(c2c(C)n[nH]c2O)c2c(C)n[nH]c2O)cc1OC
AC50 [17]: 0.386 µM (active)
EC50 (Protein RecA): 0.309 µM (active)
IC50 [8]: 32.9 µM (active)
IC50 [9]: 43.6 µM (active)
